Measured values as given in patent US9206164B2, “Pyrazole compounds as CRTH2 antagonists” (Boehringer Ingelheim International GmbH, priority 2011, dated 2015).

biological target: human CRTH2 receptor (Homo sapiens (Human), UniProt Q9Y5Y4); test: CRTH2 receptor radioligand binding assay (SPA, [3H]-PGD2 displacement); conditions: antagonistic activities of selected compounds
Experimental: The binding of CRTH2 antagonists is determined using membranes prepared from Chinese hamster ovary cells (CHO-K1 cells) transfected with the human CRTH2 receptor (CHO-K1-hCRTH2 cells, Perkin Elmer, Cat No ES-561-C). To produce cell membranes the CHO-K1-hCRTH2 cells are cultured in suspension in CHO SFMII medium supplemented with 400 μg/ml G418. The cells are harvested by centrifugation at 300 g for 10 min at room temperature. The cell pellet is resuspended in Phosphate Buffer Saline (PBS) including a protease inhibitor mix (Complete, Roche) and adjusted to a concentration of 10E7 cells/ml. The CHO-K1-hCRTH2 cells are disrupted by nitrogen […] to obtain the membrane preparation. Cell debris is removed by centrifugation (500 g at 4° C., 30 min) and the supernatant is transferred into fresh tubes followed by a second centrifugation at 40000 g for 1 h at 4° C. to sediment the membranes. The membranes are suspended in SPA incubation buffer (50 mM Tris HCl, 10 mM MgCl2, 150 mM NaCl, 1 mM EDTA, pH 7.4) without bovine serum albumin, homogenized by passing through a single use needle (Terumo, 23G×1″), and stored in aliquots at −80° C.
The CRTH2 receptor binding assay is performed in a scintillation proximity assay (SPA) format with the radioligand [^3H]-PGD2 (Perkin Elmer, NET616000MC). CHO-K1-hCRTH2 cell membranes are again homogenized by passing through a single use needle (Terumo, 23G×1″) and diluted in SPA incubation buffer in suitable concentrations (0.5-10 μg protein/well). The SPA assay is set up in 96 well microtiter plates (Perkin Elmer, CatNo. 6005040) in SPA incubation buffer with a final volume of 200 μl per well and final concentration of 50 mM Tris-HCl, 10 mM MgCl2, 150 mM NaCl, 1 mM EDTA pH 7.4, 0.1% bovine serum albumin). The SPA assay mixture contains 60 μl of the membrane suspension, 80 μl of Wheat Germ Agglutinin coated PVT beads (GE Healthcare, RPNQ-0001, 0.3 mg/well), 40 μl of [^3H]-PGD2 diluted in SPA buffer to a final concentration of 1 nM (50 000 dpm) and 20 μl of the test compound (dissolved in dimethylsulfoxid). The SPA assay mixture is incubated for 3 h at room temperature. Bound radioactivity is determined with a scintillation counter (Micro Beta Trilux, Wallac).
The binding of [^3H]-PGD2 to CHO-K1-hCRTH2 cell membranes is determined in the absence (total binding, Bo) and presence (non-specific binding, NSB) of unlabelled PGD2 (1 μM, Cayman Chemical, Cat No 12010) or a reference CRTH2 antagonist (10 μM CAY10471, Cayman Chemical, Cat No 10006735).
Determination of the affinity of a test compound is calculated by subtraction of the non-specific binding (NSB) from the total binding (Bo) or the binding in the presence of the test compound (B) at a given compound concentration. The NSB value is set to 100% inhibition. The Bo−NSB value is set to 0% inhibition.
% inhibition values were obtained at a defined compound concentration, e.g. at 1 μM, % inhibition of the test compound was calculated by the formula 100−((B−NSB)*100/(Bo−NSB)). % inhibition values above 100% are founded by assay variance.

Chain of human CRTH2 receptor (Q9Y5Y4 whole entry): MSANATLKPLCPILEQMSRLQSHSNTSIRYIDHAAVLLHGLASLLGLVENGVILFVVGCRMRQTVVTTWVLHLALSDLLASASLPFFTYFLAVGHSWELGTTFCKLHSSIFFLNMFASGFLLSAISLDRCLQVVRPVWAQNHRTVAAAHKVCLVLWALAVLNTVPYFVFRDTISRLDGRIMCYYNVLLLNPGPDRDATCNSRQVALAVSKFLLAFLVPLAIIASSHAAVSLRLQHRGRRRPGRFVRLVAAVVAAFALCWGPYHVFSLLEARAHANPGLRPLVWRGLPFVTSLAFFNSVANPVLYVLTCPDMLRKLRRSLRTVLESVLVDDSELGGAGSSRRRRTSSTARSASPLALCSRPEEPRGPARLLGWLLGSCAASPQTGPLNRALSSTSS

Ki | Molecule
1.5 nM | CCc1nn(Cc2ccc(-c3nc4cc(Br)cnc4[nH]3)cc2)c(CC)c1CC(=O)O [Compound 57]
8.5 nM | Cc1nn(Cc2ccc(-c3nc4cc(F)ccc4[nH]3)cc2)c(C)c1CC(=O)O [Compound 71]
1.3 nM | CCc1nn(Cc2ccc(-c3nc4c(C)cccc4[nH]3)cc2F)c(CC)c1CC(=O)O [Compound 83]
0.7 nM | CCc1nn(Cc2ccc(-c3nc4c(Cl)cc(Cl)cc4[nH]3)cc2F)c(CC)c1CC(=O)O [Compound 104]
0.2 nM | CCc1nn(Cc2ccc(-c3nc4cc(C(C)(C)C)ccc4[nH]3)cc2)c(CC)c1CC(=O)O [Compound 68]
0.8 nM | Cc1nn(Cc2ccc(-c3cc4ccc(Cl)cc4[nH]3)cc2)c(C)c1CC(=O)O [Compound 1, (1-[4-(6-Chloro-1H-indol-2-yl)-benzyl]-3,5-dimethyl-1H-pyrazol-4-yl)-acetic Acid]
0.3 nM | Cc1nn(Cc2ccc(-c3cc4ccc(C(F)(F)F)cc4[nH]3)cc2)c(C)c1CC(=O)O [Compound 4]
16.2 nM | (3,5-Diethyl-1-[2-fluoro-4-(3H-imidazo[4,5-b]pyridin-2-yl)benzyl]-1H-pyrazol-4-yl)acetic Acid [Compound 13]
2.2 nM | CCc1nn(Cc2ccc(-c3nc4c(C)cccc4[nH]3)cc2)c(CC)c1CC(=O)O [Compound 51]
1.1 nM | Cc1cc2nc(-c3ccc(Cn4nc(C)c(CC(=O)O)c4C)cc3)[nH]c2cc1Cl [Compound 54]
1.7 nM | CCc1nn(Cc2ccc(-c3nc4c(F)cccc4[nH]3)cc2)c(CC)c1CC(=O)O [Compound 67]
2.3 nM | Cc1nn(Cc2ccc(-c3nc4cc(Cl)ccc4[nH]3)cc2F)c(C)c1CC(=O)O [Compound 108]
7.6 nM | COc1ccc2[nH]c(-c3ccc(Cn4nc(C)c(CC(=O)O)c4C)cc3)nc2c1 [Compound 59]
13.4 nM | Cc1nn(Cc2ccc(-c3nc4ccccc4[nH]3)cc2)c(C)c1CC(=O)O [Compound 14]
0.9 nM | Cc1nn(Cc2ccc(-c3nc4cc(C(C)(C)C)ccc4[nH]3)cc2F)c(C)c1CC(=O)O [Compound 97]
10 nM | Cc1nn(Cc2ccc(-c3nc4c(C)cccc4[nH]3)cc2)c(C)c1CC(=O)O [Compound 63]
61.2 nM | CCc1nn(Cc2ccc(-c3nc4cc(Cl)ccc4n3C)cc2)c(CC)c1CC(=O)O [Compound 69]
2.6 nM | CCc1nn(Cc2ccc(-c3nc4cc(Br)cnc4[nH]3)cc2F)c(CC)c1CC(=O)O [Compound 89]
5.1 nM | CCc1nn(Cc2ccc(-c3nc4cc(Cl)cnc4[nH]3)cc2F)c(CC)c1CC(=O)O [Compound 95]
0.4 nM | CCc1nn(Cc2ccc(-c3nc4cc(Br)ccc4[nH]3)cc2F)c(CC)c1CC(=O)O [Compound 87]
753 nM | Cc1nn(Cc2ccc(-c3nc4ccccc4n3C)cc2)c(C)c1CC(=O)O [Compound 30]
397 nM | Cc1nn(Cc2cccc(-c3cc4ccc(Cl)cc4[nH]3)c2)c(C)c1CC(=O)O [Compound 7]
85.4 nM | CCc1nn(Cc2ccc(-c3nc4cncnc4[nH]3)cc2)c(CC)c1CC(=O)O [Compound 37]
2.1 nM | Cc1nn(Cc2ccc(-c3nc4cc(F)c(Cl)cc4[nH]3)cc2F)c(C)c1CC(=O)O [Compound 102]

Ki | Molecule
0.1 nM | CCc1nn(Cc2ccc(-c3nc4cc(C(C)(C)C)ccc4[nH]3)cc2F)c(CC)c1CC(=O)O [Compound 98]
1.2 nM | CCc1nn(Cc2ccc(-c3nc4c(F)cccc4[nH]3)cc2F)c(CC)c1CC(=O)O [Compound 74]
4.9 nM | Cc1nn(Cc2ccc(-c3nc4c(F)c(F)ccc4[nH]3)cc2)c(C)c1CC(=O)O [Compound 47]
1.1 nM | CCc1nn(Cc2ccc(-c3nc4c(F)cc(F)cc4[nH]3)cc2F)c(CC)c1CC(=O)O [Compound 101]
0.8 nM | CCc1nn(Cc2ccc(-c3nc4c(F)c(F)ccc4[nH]3)cc2F)c(CC)c1CC(=O)O [Compound 84]
3.1 nM | CCc1nn(Cc2ccc(-c3nc4nc(OC)ccc4[nH]3)cc2)c(CC)c1CC(=O)O [Compound 64]
1.3 nM | CCc1nn(Cc2ccc(-c3nc4cc(F)ccc4[nH]3)cc2)c(CC)c1CC(=O)O [Compound 56]
21.9 nM | Cc1cc(Cn2nc(C)c(CC(=O)O)c2C)ccc1-c1nc2ccccc2[nH]1 [Compound 22]
432 nM | Cc1nn(Cc2ccc(-c3nc4cncnc4[nH]3)cc2)c(C)c1CC(=O)O [Compound 70]
636 nM | Cc1nn(Cc2ccc(-c3nc4ccncc4[nH]3)cc2F)c(C)c1CC(=O)O [Compound 72]
6.5 nM | Cc1nn(Cc2ccc(-c3nc4cc(F)ccc4[nH]3)cc2F)c(C)c1CC(=O)O [Compound 86]
287 nM | Cc1nn(Cc2cccc(-c3nc4cc(C(F)(F)F)ccc4[nH]3)c2)c(C)c1CC(=O)O [Compound 110]
5.1 nM | Cc1nn(Cc2ccc(-c3nc4c(F)c(F)ccc4[nH]3)cc2F)c(C)c1CC(=O)O [Compound 105]
1.3 nM | CCc1nn(Cc2ccc(-c3nc4nc(OC)ccc4[nH]3)cc2F)c(CC)c1CC(=O)O [Compound 79]
0.8 nM | Cc1nn(Cc2ccc(-c3cc4ccc(Cl)cc4[nH]3)cc2F)c(C)c1CC(=O)O [Compound 6]
1.8 nM | Cc1cc2nc(-c3ccc(Cn4nc(C)c(CC(=O)O)c4C)c(F)c3)[nH]c2cc1Cl [Compound 109]
9.7 nM | Cc1nn(Cc2ccc(-c3nc4c(F)cccc4[nH]3)cc2F)c(C)c1CC(=O)O [Compound 99]
5.6 nM | Cc1nn(Cc2ccc(-c3nc4c(F)cc(F)cc4[nH]3)cc2)c(C)c1CC(=O)O [Compound 36]
4.8 nM | Cc1ccc2[nH]c(-c3ccc(Cn4nc(C)c(CC(=O)O)c4C)cc3)nc2c1 [Compound 41]
3.7 nM | Cc1ccc2[nH]c(-c3ccc(Cn4nc(C)c(CC(=O)O)c4C)c(F)c3)nc2c1 [Compound 91]
22.6 nM | CCc1nn(Cc2ccc(-c3nc4cncc(C)c4[nH]3)cc2)c(CC)c1CC(=O)O [Compound 26]
0.6 nM | CCc1nn(Cc2ccc(-c3nc4cc(F)c(Cl)cc4[nH]3)cc2F)c(CC)c1CC(=O)O [Compound 76]
1.2 nM | Cc1nn(Cc2ccc(-c3nc4cc(Cl)c(Cl)cc4[nH]3)cc2)c(C)c1CC(=O)O [Compound 17]

Molecule | Ki
CCc1nn(Cc2ccc(-c3nc4ccc(C(F)(F)F)cc4[nH]3)cc2)c(CC)c1CC(=O)O [Compound 20] | 0.2 nM
